By Ki is commonly meant a measure of affinity in units of concentration, obtained from inhibition or displacement. Higher therefore signals a looser hold on the target. For orientation: ED50 means the dose at which the effect has come halfway, by size or by number of responders.

The structures appear in SMILES notation.

Assay [1] relates to Rattus norvegicus. Description: Effect on heart rate in anesthetized Wistar rat assessed as P-Q intervals time at 1 mg/kg, iv after 15 mins by electrocardiography. In kind it is functional.
Assay [2] can be described thus: Displacement of [3H]CGP12177 from beta-1 adrenergic receptor in Wistar rat cerebral cortex membrane by liquid scintillation counting. In kind it is tissue-based.
Assay [3] has as its system Rattus norvegicus. Description: Effect on heart rate in anesthetized Wistar rat assessed as P-Q intervals time at 1 mg/kg, iv after 1 min by electrocardiography. It is filed as functional.
The test system of assay [4] is Rattus norvegicus. Description: Effect on heart rate in anesthetized Wistar rat assessed as heart beats per min at 1 mg/kg, iv after 15 mins by electrocardiography. In kind it is functional.
Assay [5] deals with Rattus norvegicus. Description: Effect on heart rate in anesthetized Wistar rat assessed as Q-T intervals time at 1 mg/kg, iv after 15 mins by electrocardiography. In kind it is functional.
Assay [6] concerns the target T1, Adrenergic receptor alpha-1 (Rattus norvegicus, UniProt P15823+P23944+P43140).
T1 sequence (P15823 whole entry): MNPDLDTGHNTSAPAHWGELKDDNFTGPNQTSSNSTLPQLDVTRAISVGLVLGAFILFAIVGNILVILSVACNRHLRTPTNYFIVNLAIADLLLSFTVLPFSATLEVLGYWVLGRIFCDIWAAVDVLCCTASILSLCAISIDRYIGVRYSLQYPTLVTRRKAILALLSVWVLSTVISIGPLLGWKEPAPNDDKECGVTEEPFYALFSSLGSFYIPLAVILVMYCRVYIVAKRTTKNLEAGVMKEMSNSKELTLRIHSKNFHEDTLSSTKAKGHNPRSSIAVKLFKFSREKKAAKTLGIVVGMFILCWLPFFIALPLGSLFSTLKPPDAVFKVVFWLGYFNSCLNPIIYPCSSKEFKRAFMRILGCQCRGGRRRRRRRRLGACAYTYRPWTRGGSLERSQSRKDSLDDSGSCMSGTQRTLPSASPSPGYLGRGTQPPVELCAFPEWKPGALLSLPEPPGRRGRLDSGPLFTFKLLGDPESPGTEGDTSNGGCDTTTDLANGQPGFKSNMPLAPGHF
T1 sequence (P23944 whole entry): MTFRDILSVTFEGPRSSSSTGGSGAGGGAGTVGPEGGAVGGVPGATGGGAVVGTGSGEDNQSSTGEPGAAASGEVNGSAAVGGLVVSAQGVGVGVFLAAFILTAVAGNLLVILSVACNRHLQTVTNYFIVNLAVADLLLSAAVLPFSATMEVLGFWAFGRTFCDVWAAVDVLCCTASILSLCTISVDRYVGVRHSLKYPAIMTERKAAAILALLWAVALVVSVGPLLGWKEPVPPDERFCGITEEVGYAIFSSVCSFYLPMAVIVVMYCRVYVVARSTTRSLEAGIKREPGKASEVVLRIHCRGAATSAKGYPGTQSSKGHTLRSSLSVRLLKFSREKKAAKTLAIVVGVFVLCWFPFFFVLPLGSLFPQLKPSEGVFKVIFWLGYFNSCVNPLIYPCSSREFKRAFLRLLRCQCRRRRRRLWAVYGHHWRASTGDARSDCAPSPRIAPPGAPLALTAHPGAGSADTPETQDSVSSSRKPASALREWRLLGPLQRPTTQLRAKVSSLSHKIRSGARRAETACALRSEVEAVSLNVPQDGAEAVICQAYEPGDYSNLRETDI
T1 sequence (P43140 whole entry): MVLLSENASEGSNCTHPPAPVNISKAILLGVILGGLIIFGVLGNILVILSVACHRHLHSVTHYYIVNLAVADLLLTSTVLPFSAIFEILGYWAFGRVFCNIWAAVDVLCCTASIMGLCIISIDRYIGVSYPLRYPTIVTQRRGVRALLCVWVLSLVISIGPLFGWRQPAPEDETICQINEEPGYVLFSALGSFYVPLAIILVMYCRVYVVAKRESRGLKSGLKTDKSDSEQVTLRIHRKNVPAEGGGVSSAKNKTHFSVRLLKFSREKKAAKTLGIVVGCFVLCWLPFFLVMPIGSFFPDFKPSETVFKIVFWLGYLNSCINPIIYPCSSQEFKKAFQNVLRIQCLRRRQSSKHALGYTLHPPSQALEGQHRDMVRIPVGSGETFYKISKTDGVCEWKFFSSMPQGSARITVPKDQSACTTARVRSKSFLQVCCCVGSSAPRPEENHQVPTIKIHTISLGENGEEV
Description: Displacement of [3H]Prazosin from alpha1 adrenergic receptor in Wistar rat cerebral cortex membrane by liquid scintillation counting. In kind it is tissue-based. (Displacement assays read how much labelled ligand stays bound in the presence of the test substance.)

For assay [7], the system named is Rattus norvegicus. Description: Antiarrhythmic activity in Wistar rat assessed as inhibition of adrenaline-induced premature ventricular beats at 1 mg/kg, iv administered 15 mins before adrenaline challenge measured after 15 mins by electrocardiography. In kind it is functional. As to conditions: Heart.
In assay [8] the test system is Rattus norvegicus. Description: Effect on heart rate in anesthetized Wistar rat assessed as heart beats per min at 1 mg/kg, iv after 1 min by electrocardiography. In kind it is functional.
Assay [9] relates to Rattus norvegicus. Description: Effect on heart rate in anesthetized Wistar rat assessed as Q-T intervals time at 1 mg/kg, iv after 5 mins by electrocardiography. It is filed as functional.

Consider `COc1ccccc1OCCNC[C@@H](O)COc1c(OC)ccc2[nH]ccc12`, for which the Activity in assay [1] was 42 ms; in [3], 45.3 ms; in [4] it was 387 bpm; in assay [5] it was 113.3 ms; in assay [8], 395.5 bpm; in assay [9] it was 106 ms. Besides, the figures for the Ki in [2] and in assay [6] were 3400 nM and 45.8 nM, respectively. Also, the median effective dose (ED50) in assay [7] was found to be 0.16 mg/kg.

Take `COc1ccccc1OCCNC[C@H](O)COc1c(OC)ccc2[nH]ccc12`: the Activity in assay [1] was 46 ms; in [3], 48.7 ms; in [4], 367.6 bpm; in [5], 118 ms; in assay [8] it was 388.1 bpm; in assay [9], 111.3 ms. Also, the Ki stood at 887 nM in assay [2] and 11.3 nM in [6]. Besides, the ED50 in assay [7] came to 0.3 mg/kg.

For the compound `COc1ccccc1OCCNCC(O)COc1c(OC)ccc2[nH]ccc12` (racemic), the Activity stood at 48 ms in assay [1]; 48.7 ms in assay [3]; 364.7 bpm in assay [4]; 118 ms in [5]; 376.3 bpm in assay [8]; 107.3 ms in [9]. The values for the Ki in [2] and in assay [6] were 1600 nM and 21.1 nM, respectively. The ED50 in assay [7] is 0.38 mg/kg.

Turning to `COc1ccccc1OCCNCC(O)COc1ccc(OC)c2[nH]ccc12` (racemic), the Activity in assay [1] amounted to 57.3 ms; in [3] it was 58.8 ms; in assay [4], 300 bpm; in assay [5], 79.2 ms; in assay [8], 297.3 bpm; in assay [9], 79.2 ms. Moreover, the inhibition constant Ki in assay [2] turned out to be 125 nM; in assay [6], 75.8 nM. For the same compound, the ED50 in assay [7] is 0.45 mg/kg.

In the case of `COc1ccccc1OCCNC[C@@H](O)COc1ccc(OC)c2[nH]ccc12`, the Activity in assay [1] is listed as 58 ms; in assay [3], 58.5 ms; in assay [4], 255.2 bpm; in [5], 81.7 ms; in [8], 267.4 bpm; in [9] it was 88 ms. Further, the inhibition constant (Ki) is 531 nM in [2] and 60.9 nM in assay [6]. In assay [7], the ED50 came to 0.38 mg/kg.

With `COc1ccccc1OCCNC[C@H](O)COc1ccc(OC)c2[nH]ccc12`, the Activity in [1] is 53.3 ms; in assay [3], 58.5 ms; in assay [4] it was 275.9 bpm; in assay [5], 83 ms; in assay [8], 292 bpm; in assay [9] it was 94.8 ms. The values for the inhibitory constant (Ki) in [2] and in [6] were 59.3 nM and 168.8 nM, respectively. In addition, the ED50 in assay [7] was 0.53 mg/kg.

These data come from ChEMBL document CHEMBL1154779, “Synthesis and adrenolytic activity of 1-(1H-indol-4-yloxy)-3-(2-(2-methoxy phenoxy)ethylamino)propan-2-ol analogs and its enantiomers. Part 2” (Eur J Med Chem, 2009).
